Assay results from patent US8071810B2, “C5a receptor antagonists” (Jerini AG, priority 2005, dated 2011).

Key:
[1] = test system: E. coli induced oxidative burst in human whole blood; test: E. coli induced oxidative burst in human whole blood (Phagoburst kit, Example 26); format: cell-based; conditions: read-out: IC50 for the inhibition of the E. coli induced oxidative burst in human whole blood
Protocol: The whole blood assay is carried out according to the instructions from the Phagoburst-Kit (Orpegen Pharma). 50 μg/ml of Refludan is used to inhibit blood clotting (Mollnes et al. 2002 Blood 100: 1869). Freshly drawn, anticoagulated blood is cooled over ice and 100 μl thereof are added to 10 μl of the compound solution containing at most 1.3% of DMSO. The mixture is incubated for 10 minutes at 37° C. After this the samples are put on ice again and 20 μl of opsonisated E. coli suspension (10^9 cells/ml) is added followed by 10 minutes of incubation at 37° C. 20 μl of the substrate are added to the cells followed by another 10 minutes of incubation at 37° C. After this 2 ml of lysis buffer are added to the cells, which are then kept at room temperature for 20 minutes. The cellular components are separated by centrifugation at 250×g for 5 minutes. The supernatant is discarded and 3 ml of washing solution are added to the pellet. The cells are centrifuged again and the resulting pellet is taken up in 200 μl DNA staining solution. The neutrophiles are analysed by means of a FACS device (FACSCalibur, Becton-Dickinson) according to the parameters given in the manual. […] It can be seen that, due to the determined activity, the compounds of this invention are suited to be used as therapeutics in human.

C5a receptor = target: T1, C5a receptor (Homo sapiens, UniProt P21730); test: Binding of 125I-C5a to human C5aR transfected HEK293 cells (Example 27); set-up: expressed in transfected cells; host or cells: HEK293 cells; conditions: 125I-C5a tracer, read-out: IC50 for the inhibition of the binding of C5a to the C5a receptor
T1 sequence (P21730 1-350): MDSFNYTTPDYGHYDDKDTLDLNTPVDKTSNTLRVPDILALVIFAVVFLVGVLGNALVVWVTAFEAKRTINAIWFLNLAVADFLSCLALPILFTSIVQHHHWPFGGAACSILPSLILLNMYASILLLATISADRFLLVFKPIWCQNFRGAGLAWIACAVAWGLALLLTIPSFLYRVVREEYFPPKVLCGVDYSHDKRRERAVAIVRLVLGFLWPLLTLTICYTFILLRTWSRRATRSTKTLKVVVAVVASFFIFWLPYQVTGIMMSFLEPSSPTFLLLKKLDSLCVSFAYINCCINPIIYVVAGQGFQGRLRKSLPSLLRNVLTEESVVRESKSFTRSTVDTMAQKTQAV
Protocol: The binding studies are done as determination of IC50 values with radioactively labeled C5a (125I) as tracer. For this purpose, human C5aR transfected HEK293 cells are adjusted to a concentration of […]. 30 μl of the cell suspension are added into a microtiter plate. Then the C5a receptor antagonists are added followed by 10 minutes pre-incubation at room temperature. After that, 10 μl of labelled C5a are added (15.000 cpm). The mixture is now incubated over ice for 30 minutes. After this the cells are isolated by means of a filter plate (Millipore MHVB 4510) and washed two times with 100 μl HAG-CM each (see example 32). The cells are dried and, after transferring the filter plate onto the adapter plate (Canberra 6005178), 50 μl/well Microscint 0 are added and the plate is measured in the scintillation counter.

[2] = AB permeability in TC-7 cell based assay (Example 34); format: in vitro ADME; conditions: human, Caco-2, TC-7 cells, apical pH 6.5 / basolateral pH 7.4, 120 min
Protocol: Compounds to be tested are prepared at a concentration of 50 μM in HBSS-MES (5 mM, pH 6.5) (from a 10 mM stock solution in 100% DMSO). ^14C-mannitol (about 4 μM) is added and the solution is mixed and centrifuged. The supernatant is added to the apical side of a TC-7 cell culture (passage 15, in 24 well transwell plate) to obtain a DMSO concentration of 1%. At the basolateral side HBSS-HEPES (5 mM, pH 7.4) is placed. Subsequently, the cells are incubated for 120 minutes at 37° C. The integrity of the TC-7 cell layer is checked by means of the added mannitol (Papp <2.5 10^−6 cm/s). The Permeabilität Papp [cm/s] is equal to (VR×CR120)/(Δt×A×(CD,mid−CR,mid)). VR is the volume of the receiver chamber, CR120 the concentration the test compound in the receiver chamber after 120 minutes, Δt the incubation time, A the area of the TC-7 cell layer, CD,mid the midpoint concentration of the test substance in the donor chamber and CR,mid the concentration of the test compound in the receiver chamber.

Structure (SMILES) | IC50 [1] [µM] | IC50 (C5a receptor) [µM] | Papp A→B at 120 min, 50 μM [2] [×10⁻⁶ cm/s]
CCc1c(N)cc(Cl)c(CC)c1NC(=O)N(Cc1ccc(Cl)cc1)c1ccc(CC(F)(F)F)cc1 [compound 103, 3-(3-amino-5-chloro-2,6-diethyl-phenyl)-1-(4-chloro-benzyl)-1-[4-(2,2,2-trifluoro-ethyl)-phenyl]-urea] | 0.8 | 0.0586 | –
CCc1ccc(N(C(=O)Nc2c(CC)c(N)cc(Cl)c2CC)C(C)c2ccc3c(c2)ncn3C)cc1 (stereo not drawn) [compound 122, 3-(3-amino-5-chloro-2,6-diethyl-phenyl)-1-(4-ethyl-phenyl)-1-[1-(1-methyl-1H-benzoimidazol-5-yl)-ethyl]-urea] | 3.5 | – | 3.5
CCc1ccc(N(Cc2ccc(C)nc2)C(=O)Nc2c(CC)c(N)cc(Cl)c2CC)cc1 [compound 106, 3-(3-amino-5-chloro-2,6-diethyl-phenyl)-1-(4-ethyl-phenyl)-1-(6-methyl-pyridin-3-ylmethyl)-urea] | 1.6 | – | 22.3
